From paper PMC4877007, “A Minimal Threshold of c-di-GMP Is Essential for Fruiting Body Formation and Sporulation in Myxococcus xanthus” (PLoS Genetics, 2016) come the findings set out here.

The Kd is a measure of binding affinity in units of concentration. A higher Kd goes with lower affinity.

One test has as its target T1, EpsI/Nla24 (Myxococcus xanthus, UniProt Q1CVM8).
T1 construct: calculated 50 kDa; receiver, AAA+ and HTH domains
Description: SPR (Biacore T200), steady-state affinity fit. The format is binding. As to conditions: labelled compound: biotinylated c-di-GMP immobilised on streptavidin chip, protein as analyte; paper states KD as that of c-di-GMP; 10 mM HEPES, 150 mM NaCl, 2 mM MgCl2, pH 6.8, 25°C. A general note: Surface plasmon resonance follows binding to a sensor surface in real time, without labels.

For another test, the target named is T2, DmxB (Myxococcus xanthus, UniProt Q1D603, R210A).
T2 construct: gene MXAN_3735; full-length, DmxB-His6 from pET24b(+) (pDJS30), made in E. coli Rosetta 2(DE3), Ni-NTA; N-terminal receiver, C-terminal GGDEF
Description: TLC of [α-32P]-GTP products (diguanylate cyclase assay). The test is classed as biochemical. As to conditions: labelled compound; I-site mutant; 1 mM GTP, 10 μM protein, 10 mM MgCl2, 300 mM NaCl, pH 8.0, 30°C.

T1 sequence (Q1CVM8 entry or part of it): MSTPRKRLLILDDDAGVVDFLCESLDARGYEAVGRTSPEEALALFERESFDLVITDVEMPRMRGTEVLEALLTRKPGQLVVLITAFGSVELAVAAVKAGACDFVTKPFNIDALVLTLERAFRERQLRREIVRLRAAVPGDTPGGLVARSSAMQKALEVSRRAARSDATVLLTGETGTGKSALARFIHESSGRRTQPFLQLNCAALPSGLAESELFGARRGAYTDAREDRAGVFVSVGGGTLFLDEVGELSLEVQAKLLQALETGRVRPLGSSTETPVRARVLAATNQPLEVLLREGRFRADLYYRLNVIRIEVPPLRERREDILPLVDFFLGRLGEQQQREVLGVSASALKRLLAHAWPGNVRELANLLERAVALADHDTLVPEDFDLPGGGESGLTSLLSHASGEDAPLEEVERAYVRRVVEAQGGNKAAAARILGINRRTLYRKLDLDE
T2 sequence (Q1D603 entry or part of it R210A): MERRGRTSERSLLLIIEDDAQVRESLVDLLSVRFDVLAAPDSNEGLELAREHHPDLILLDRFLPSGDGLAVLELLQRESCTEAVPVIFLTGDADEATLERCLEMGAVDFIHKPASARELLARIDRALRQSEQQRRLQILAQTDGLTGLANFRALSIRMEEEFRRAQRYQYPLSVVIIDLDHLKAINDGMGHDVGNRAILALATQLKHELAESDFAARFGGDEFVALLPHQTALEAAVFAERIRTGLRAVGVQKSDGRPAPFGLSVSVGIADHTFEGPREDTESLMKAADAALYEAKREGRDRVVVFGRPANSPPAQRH

At EpsI/Nla24, biotinylated c-di-GMP gave a Kd of 530 ± 60 nM.

Consider `Nc1nc2c(ncn2[C@@H]2O[C@H](COP(=O)(O)OP(=O)(O)OP(=O)(O)O)[C@@H](O)[C@H]2O)c(=O)[nH]1` [GTP], for which, on DmxB, the “TLC of [α-32P]-GTP products (diguanylate cyclase assay)” value is “the I-site mutant had slightly increased DGC activity in vitro in comparison to the WT”.
